The target in experiment [1] is T1, soluble ectodomain of sortilin-6his (Homo sapiens, UniProt Q99523, V650M).
T1 construct: the soluble ectodomain of sortilin-6his is measured by microscale thermophoresis (MST)
Briefly: MST binding to soluble ectodomain of sortilin-6his. The conditions noted are these: MST; for Kd: read-out: KD score, binding to sortilin (Kd).

Experiment [2] addresses T2, Sortilin-6His (Homo sapiens (Human), UniProt Q99523 78-755).
T2 construct: In MST it was labelled non-covalently with RED-tris-NTA; also called soluble ectodomain of sortilin-6his; fluorescent sortilin-6his
Briefly: MST on labelled sortilin-6his ectodomain; KD score: +++ <25 nM, ++ 25-250 nM, + 250-2500 nM, 0 >2500 nM.

Where [3] appears, read: Table 4, small molecule bifunctional compounds.
The mark [4] stands for this setting: Table 3, monofunctional peptides.

What is called Kd is the equilibrium constant for the complex coming apart. The KD is the free concentration of one partner at which half of the binding sites on the other are occupied at equilibrium, for simple one-to-one binding.

Like-named read-outs stand apart in the source and are kept apart here. Residues, ends and D or L forms follow the SMILES beside them. No end group written: not given here. *: point of attachment. Biotin = O=C1N[C@H]2[C@H](CS[C@H]2CCCCC(=O)*)N1 A value given as a limit tells only on which side of the number the result lay.

T1 sequence (Q99523 with tags, fused parts or gaps V650M): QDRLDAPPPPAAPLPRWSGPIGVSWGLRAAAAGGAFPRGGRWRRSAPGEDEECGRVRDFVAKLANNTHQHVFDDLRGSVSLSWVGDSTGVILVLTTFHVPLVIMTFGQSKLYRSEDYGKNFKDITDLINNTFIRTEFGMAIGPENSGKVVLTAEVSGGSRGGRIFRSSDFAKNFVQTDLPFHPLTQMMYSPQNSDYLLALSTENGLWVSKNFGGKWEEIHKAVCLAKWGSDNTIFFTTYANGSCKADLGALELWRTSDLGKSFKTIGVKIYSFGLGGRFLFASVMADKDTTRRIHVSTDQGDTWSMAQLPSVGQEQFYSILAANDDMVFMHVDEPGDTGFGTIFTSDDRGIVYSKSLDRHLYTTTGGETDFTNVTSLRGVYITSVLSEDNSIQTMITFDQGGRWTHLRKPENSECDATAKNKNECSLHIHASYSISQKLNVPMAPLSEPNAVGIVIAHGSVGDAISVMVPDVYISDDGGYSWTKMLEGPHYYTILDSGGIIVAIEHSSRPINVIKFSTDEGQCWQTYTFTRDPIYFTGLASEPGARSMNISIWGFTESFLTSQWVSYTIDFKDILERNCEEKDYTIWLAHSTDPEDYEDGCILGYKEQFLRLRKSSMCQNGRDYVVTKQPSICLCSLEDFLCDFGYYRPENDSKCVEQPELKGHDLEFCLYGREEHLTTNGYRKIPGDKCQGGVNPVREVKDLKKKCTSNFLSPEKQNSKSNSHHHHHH
T2 sequence (Q99523 78-755 V650M limits assumed): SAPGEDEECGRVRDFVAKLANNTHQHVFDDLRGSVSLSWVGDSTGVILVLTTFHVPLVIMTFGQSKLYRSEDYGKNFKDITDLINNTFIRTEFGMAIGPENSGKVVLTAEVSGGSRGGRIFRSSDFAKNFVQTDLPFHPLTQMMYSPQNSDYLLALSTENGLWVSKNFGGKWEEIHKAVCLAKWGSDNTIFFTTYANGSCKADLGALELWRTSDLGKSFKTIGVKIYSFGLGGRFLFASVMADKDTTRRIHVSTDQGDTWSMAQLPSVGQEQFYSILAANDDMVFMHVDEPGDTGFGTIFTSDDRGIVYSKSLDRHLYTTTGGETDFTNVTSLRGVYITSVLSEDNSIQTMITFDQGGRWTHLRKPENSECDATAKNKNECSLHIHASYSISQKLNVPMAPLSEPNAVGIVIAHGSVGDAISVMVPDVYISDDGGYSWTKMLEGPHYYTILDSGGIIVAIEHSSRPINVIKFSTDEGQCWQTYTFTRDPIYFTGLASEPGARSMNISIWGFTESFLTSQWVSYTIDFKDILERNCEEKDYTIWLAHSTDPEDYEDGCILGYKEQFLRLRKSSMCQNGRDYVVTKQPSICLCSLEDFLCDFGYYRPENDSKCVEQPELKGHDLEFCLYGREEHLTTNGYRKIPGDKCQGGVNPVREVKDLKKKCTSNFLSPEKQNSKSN

In the case of `C[C@@H]1CN(c2ncc(-c3ccc4c(n3)N(Cc3cccnc3C#N)C(C)(C)C4=O)cn2)CCN1C(=O)COCCOCCOCCNC(=O)c1cccc(Oc2ccc(C(=O)N[C@@H](CCC(C)(C)C)C(=O)O)cn2)c1` [BF056, (2S)-2-[[6-[3-[2-[2-[2-[2-[(2R)-4-[5-[1-[(2-cyano-3-pyridyl)methyl]-2,2-dimethyl-3-oxo-pyrrolo[2,3-b]pyridin-6-yl]pyrimidin-2-yl]-2-methyl-piperazin-1-yl]-2-oxo-ethoxy]ethoxy]ethoxy]ethylcarbamoyl]phenoxy]pyridine-3-carbonyl]amino]-5,5-dimethyl-hexanoic acid], the Kd in experiment [1] (setting [3]) fell in the range of 10 to 250 nM. Turning to `CC[C@H](C)[C@H](N)C(=O)N[C@@H](CCC(N)=O)C(=O)N[C@@H](CC(C)C)C(=O)N[C@@H](CC(C)C)C(=O)O` [compound 42] (H-IQLL-OH; N-terminus assumed), the Kd in experiment [1] (setting [4]) fell in the range of 250 to 2500 nM.

Turning to “H-WSGPIGVSWGLRAAAAGFQLL-OH [compound 179]”, in experiment [1] (setting [4]), the Kd was < 25 nM.

As for `CC(C)C[C@H](NC(=O)[C@H](CC(C)C)NC(=O)[C@H](CCC(N)=O)NC(=O)[C@H](CCCNC(=N)N)NC(=O)CCCC[C@@H]1SC[C@@H]2NC(=O)N[C@@H]21)C(=O)O` [compound 154] (Biotin-RQLL-OH), the Kd in experiment [1] (Table 1, biotin-linker-peptide bifunctional compounds) was < 100 nM. For `Cc1nc2cc(F)c(-c3cnc(OCCOCCOCCOCCOCCOCCOCCNC(=O)COc4cccc(Oc5ccc(C(=O)N[C@@H](CCC(C)(C)C)C(=O)O)cn5)c4)nc3)nc2c(N[C@H](C)c2cc(C#N)ccc2F)c1Cl` [BF085, (2S)-2-[[6-[3-[2-[2-[2-[2-[2-[2-[2-[2-[5-[7-chloro-8-[[(1R)-1-(5-cyano-2-fluoro-phenyl)ethyl]amino]-3-fluoro-6-methyl-1,5-naphthyridin-2-yl]pyrimidin-2-yl]oxyethoxy]ethoxy]ethoxy]ethoxy]ethoxy]ethoxy]ethylamino]-2-oxo-ethoxy]phenoxy]pyridine-3-carbonyl]amino]-5,5-dimethyl-hexanoic acid], the Kd in experiment [1] (setting [3]) was in the range of 1 to 10 nM.

With `C[C@@H]1CN(c2ncc(-c3ccc4c(n3)N(Cc3cccnc3C#N)C(C)(C)C4=O)cn2)CCN1C(=O)CNC(=O)COCCOCCCCCCNC(=O)c1cccc(Oc2ccc(C(=O)N[C@@H](CCC(C)(C)C)C(=O)O)cn2)c1`, the Kd in experiment [1] (setting [3]) lay in the range of 1 to 10 nM.

Turning to `CC(C)(C)CC[C@H](NC(=O)c1ccc(Oc2cccc(C(=O)NCCOCCOCCOCCOCCOCCOCc3ccc(-c4cccc5ccncc45)c(OCCc4ccc(-c5cccc6ccncc56)cc4)c3)c2)nc1)C(=O)O` [BF044, (2S)-2-[[6-[3-[2-[2-[2-[2-[2-[2-[[4-(8-isoquinolyl)-3-[2-[4-(8-isoquinolyl)phenyl]ethoxy]phenyl]methoxy]ethoxy]ethoxy]ethoxy]ethoxy]ethoxy]ethylcarbamoyl]phenoxy]pyridine-3-carbonyl]amino]-5,5-dimethyl-hexanoic acid], the Kd in experiment [1] (setting [3]) fell in the range of 10 to 250 nM. Regarding `CC(C)(C)CC[C@H](NC(=O)c1ccc(Oc2cccc(C(=O)NCCOCCOCCOCCNc3ccc([N+](=O)[O-])cc3[N+](=O)[O-])c2)nc1)C(=O)O` [BF002, (2S)-2-[[6-[3-[2-[2-[2-[2-(2,4-dinitroanilino)ethoxy]ethoxy]ethoxy]ethyl-carbamoyl]phenoxy]pyridine-3-carbonyl]amino]-5,5-dimethyl-hexanoic acid], the Kd in experiment [1] (setting [3]) was in the range of 1 to 10 nM. For the molecule `CC(C)(C)CC[C@H](NC(=O)c1ccc(Oc2cccc(C(=O)NCCOCCOCCOCCOCc3ccc(-c4cccc5ccncc45)c(OCCc4ccc(-c5cccc6ccncc56)cc4)c3)c2)nc1)C(=O)O` [BF035, (2S)-2-[[6-[3-[2-[2-[2-[2-[[4-(8-isoquinolyl)-3-[2-[4-(8-isoquinolyl)phenyl]ethoxy]phenyl]methoxy]ethoxy]ethoxy]ethoxy]ethylcarbamoyl]phenoxy]pyridine-3-carbonyl]amino]-5,5-dimethyl-hexanoic acid], the Kd in experiment [1] (setting [3]) is 1 to 10 nM. On the same count and under the same terms, then `C[C@@H]1CN(c2ncc(-c3ccc4c(n3)N(Cc3cccnc3C#N)C(C)(C)C4=O)cn2)CCN1C(=O)COCCNC(=O)COc1cccc(Oc2ccc(C(=O)N[C@@H](CCC(C)(C)C)C(=O)O)cn2)c1` [BF064, (S)-2-(6-(3-(2-((8-(2-((R)-4-(5-(1-((2-cyanopyridin-3-yl)methyl)-2,2-dimethyl-3-oxo-2,3-dihydro-1H-pyrrolo[2,3-b]pyridin-6-yl)pyrimidin-2-yl)-2-methylpiperazin-1-yl)-2-oxoethoxy)methyl)amino)-2-oxoethoxy)phenoxy)nicotinamido)-5,5-dimethylhexanoic acid], with 1 to 10 nM; and `C[C@@H]1CN(c2ncc(-c3ccc4c(n3)N(Cc3cccnc3C#N)C(C)(C)C4=O)cn2)CCN1C(=O)COCCCCNC(=O)COc1cccc(Oc2ccc(C(=O)N[C@@H](CCC(C)(C)C)C(=O)O)cn2)c1` [BF048], with 1 to 10 nM; and `C[C@@H]1CN(c2ncc(-c3ccc4c(n3)N(Cc3cccnc3C#N)C(C)(C)C4=O)cn2)CCN1C(=O)COCCCCCCNc1cccc(Oc2ccc(C(=O)N[C@@H](CCC(C)(C)C)C(=O)O)cn2)c1` [BF039], with 1 to 10 nM. As for `CC(C)C[C@H](NC(=O)[C@H](CC(C)C)NC(=O)[C@H](CCC(N)=O)NC(=O)[C@H](CCCNC(=N)N)NC(=O)[C@H](CC(C)C)NC(=O)[C@H](C)NC(=O)[C@@H]1CCCN1C(=O)[C@H](CC(=O)O)NC(=O)[C@H](CCCNC(=N)N)NC(=O)[C@H](CC(C)C)NC(=O)[C@@H]1CCCN1C(=O)[C@H](C)NC(=O)[C@H](CC(=O)O)NC(=O)[C@H](Cc1c[nH]c2ccccc12)NC(=O)[C@H](CCCNC(=N)N)NC(=O)[C@@H]1CCCN1C(=O)[C@H](C)NC(=O)[C@H](CCC(=O)O)NC(=O)[C@@H](N)CCCNC(=N)N)C(=O)O` [compound 53], the Kd in experiment [1] (setting [4]) is < 25 nM.

On to `Cc1nc2cc(F)c(-c3cnc(OCCCCCn4cc(COCCOCCOCCOCCNC(=O)COc5cccc(Oc6ccc(C(=O)N[C@@H](CCC(C)(C)C)C(=O)O)cn6)c5)nn4)nc3)nc2c(N[C@H](C)c2cc(C#N)ccc2F)c1Cl` [BF084, (2S)-2-[[6-[3-[2-[2-[2-[2-[2-[[1-[5-[5-[7-chloro-8-[[(1R)-1-(5-cyano-2-fluoro-phenyl)ethyl]amino]-3-fluoro-6-methyl-1,5-naphthyridin-2-yl]pyrimidin-2-yl]oxypentyl]triazol-4-yl]methoxy]ethoxy]ethoxy]ethoxy]ethylamino]-2-oxo-ethoxy]phenoxy]pyridine-3-carbonyl]amino]-5,5-dimethyl-hexanoic acid], for which the Kd in experiment [1] (setting [3]) lay within 1 to 10 nM. Still for that read-out and setting: with `CC(C)(C)CC[C@H](NC(=O)c1ccc(Oc2cccc(C(=O)NCCOCCOCCOCCOCCOCCNc3ncc(-c4ccc5c(n4)N(Cc4cccnc4C#N)C(C)(C)C5=O)cn3)c2)nc1)C(=O)O` [BF067, (2S)-2-[[6-[3-[2-[2-[2-[2-[2-[2-[[5-[1-[(2-cyano-3-pyridyl)methyl]-2,2-dimethyl-3-oxo-pyrrolo[2,3-b]pyridin-6-yl]pyrimidin-2-yl]amino]ethoxy]ethoxy]ethoxy]ethoxy]ethoxy]ethylcarbamoyl]phenoxy]pyridine-3-carbonyl]amino]-5,5-dimethyl-hexanoic acid] the figure was < 1 nM.

Regarding REAPRWDAPLRDPALRYYL-OH [compound 61], the Kd in experiment [1] (setting [4]) was in the range of 25 to 250 nM. With `C[C@@H]1CN(c2ncc(-c3ccc4c(n3)N(Cc3cccnc3C#N)C(C)(C)C4=O)cn2)CCN1C(=O)Cn1cc(COCCOCCOCC(=O)N2CCC(Oc3cccc(Oc4ccc(C(=O)N[C@@H](CCC(C)(C)C)C(=O)O)cn4)c3)CC2)nn1` [BF112, (2S)-2-[[6-[3-[[1-[2-[2-[2-[[1-[2-[(2R)-4-[5-[1-[(2-cyano-3-pyridyl)methyl]-2,2-dimethyl-3-oxo-pyrrolo[2,3-b]pyridin-6-yl]pyrimidin-2-yl]-2-methyl-piperazin-1-yl]-2-oxo-ethyl]triazol-4-yl]methoxy]ethoxy]ethoxy]acetyl]-4-piperidyl]oxy]phenoxy]pyridine-3-carbonyl]amino]-5,5-dimethyl-hexanoic acid], in experiment [1] (setting [3]), the Kd was < 1 nM. Still for that read-out and setting: with `C[C@@H]1CN(c2ncc(-c3ccc4c(n3)N(Cc3cccnc3C#N)C(C)(C)C4=O)cn2)CCN1C(=O)COCCCCNC(=O)c1cccc(Oc2ccc(C(=O)N[C@@H](CCC(C)(C)C)C(=O)O)cn2)c1` [BF045] the figure was 1 to 10 nM. Turning to `Cc1cc(-c2ccc(C(=O)NCCCCCCCCCCCC(=O)NCC(=O)N3CCN(c4ncc(-c5ccc6c(n5)N(Cc5cccnc5C#N)C(C)(C)C6=O)cn4)C[C@H]3C)cc2)cc(NC(=O)c2ccc(C(F)(F)F)cc2C(=O)O)n1` [BF146, 2-[[4-[4-[[12-[[2-[(2R)-4-[5-[1-[(2-cyano-3-pyridyl)methyl]-2,2-dimethyl-3-oxo-pyrrolo[2,3-b]pyridin-6-yl]pyrimidin-2-yl]-2-methyl-piperazin-1-yl]-2-oxo-ethyl]amino]-12-oxo-dodecyl]carbamoyl]phenyl]-6-methyl-2-pyridyl]carbamoyl]-5-(trifluoromethyl)benzoic acid], the “KD score, binding to sortilin (Kd)” value in experiment [1] (setting [3]) is given as 0. Regarding `CC(C)(C)CC[C@H](NC(=O)c1ccc(Oc2cccc(C(=O)NCCOCCOCCOCCOc3ncc(-c4ccc5c(n4)N(Cc4cccnc4C#N)C(C)(C)C5=O)cn3)c2)nc1)C(=O)O` [BF054], in experiment [1] (setting [3]), the Kd lay in the range of 1 to 10 nM. On to H-FYIL-OH [H-FYIL-OH], for which the KD in experiment [2] lay within 250 to 2500 nM. As for H-KQLL-OH [H-KQLL-OH], the KD in experiment [2] was 25 to 250 nM. Still for that read-out and setting: then H-PQLL-OH [H-PQLL-OH], with 25 to 250 nM; and H-PYIL-OH [H-PYIL-OH], with 25 to 250 nM.

Consider H-PYLL-OH [H-PYLL-OH], for which, in experiment [2], the KD fell in the range of 250 to 2500 nM.

Turning to H-RQFL-OH [H-RQFL-OH], in experiment [2], the KD lay in the range of 250 to 2500 nM.

Turning to H-RQYL-OH [H-RQYL-OH], in experiment [2], the KD was in the range of 250 to 2500 nM.

These data come from patent US20250345446A1 (Draupnir Bio ApS, priority 2022, published 2025).
